The text below walks through data of patent US7517901B2, “p38 MAP kinase inhibitors and methods for using the same” (Roche Palo Alto LLC, priority 2005, dated 2009).

Broadly, the IC50 is the point on the concentration scale where inhibition reaches its midpoint. By melting point is commonly meant the temperature, or range, at which the solid turns liquid.

For data set [1], the target named is T1, p38 MAP kinase (Homo sapiens, UniProt Q16539).
T1 construct: made in house; host or cells: E. coli (co-expressed with SEK-1 and MEKK)
T1 sequence (Q16539 whole entry): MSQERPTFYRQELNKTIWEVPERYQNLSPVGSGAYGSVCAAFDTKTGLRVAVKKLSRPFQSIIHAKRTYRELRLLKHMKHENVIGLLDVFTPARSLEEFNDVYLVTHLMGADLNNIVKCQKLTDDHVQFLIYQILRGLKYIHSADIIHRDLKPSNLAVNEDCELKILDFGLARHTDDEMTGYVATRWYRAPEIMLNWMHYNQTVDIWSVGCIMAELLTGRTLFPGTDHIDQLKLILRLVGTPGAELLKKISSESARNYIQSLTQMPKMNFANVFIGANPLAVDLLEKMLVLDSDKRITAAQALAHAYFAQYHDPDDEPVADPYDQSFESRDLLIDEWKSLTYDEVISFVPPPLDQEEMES
The experiment in a line: p38 (MAP) kinase in vitro assay (transfer of γ-33P from ATP to Myelin Basic Protein). The class given is biochemical. The following applies: phosphorylated recombinant p38 MAP kinase, MBP substrate, γ-33P-ATP, 30° C. How it is done:
This example illustrates a p38 (MAP) kinase in vitro assay useful for evaluating the compounds of the invention.
The p38 MAP kinase inhibitory activity of compounds of this invention in vitro was determined by measuring the transfer of the γ-phosphate from γ-^33P-ATP by p-38 kinase to Myelin Basic Protein (MBP), using a minor modification of the method described in Ahn, et al., J. Biol. Chem. 266:4220-4227 (1991).
The phosphorylated form of the recombinant p38 MAP kinase was co-expressed with SEK-1 and MEKK in E. Coli (see, Khokhlatchev, et al., J. Biol. Chem. 272:11057-11062 (1997)) and then purified by affinity chromatography using a Nickel column.
The phosphorylated p38 MAP kinase was diluted in kinase buffer (20 mM 3-(N-morpholino)propanesulfonic acid, pH 7.2, 25 mM β-glycerol phosphate, 5 mM ethylene glycol-bis(beta-aminoethyl ether)-N,N,N′,N′-tetraacetic acid, 1 mM sodium ortho-vanadate, 1 mM dithiothreitol, 40 mM magnesium chloride). Test compound dissolved in DMSO or only DMSO (control) was added and the samples were incubated for 10 min at 30° C. The kinase reaction was initiated by the addition of a substrate cocktail containing MBP and γ-^33P-ATP. […] The phosphorylated MBP was then separated from the residual γ-^33P-ATP using a phosphocellulose membrane (Millipore, Bedford, Mass.) and quantitated using a scintillation counter (Packard, Meriden, Conn.).

`O=S(=O)(Nc1ccc2c(-c3ccccc3Cl)n[nH]c2c1)c1cccc(Cl)c1F` [Compound 46, 3-Chloro-N-[3-(2-chloro-phenyl)-1H-indazol-6-yl]-2-fluoro-benzenesulfonamide]: the IC50 in data set [1] is approximately 20 nM.

Regarding `O=S(=O)(Nc1ccc2c(-c3ccccc3Cl)n[nH]c2c1)c1cccc(Cl)c1` [Compound 12, 3-Chloro-N-[3-(2-chloro-phenyl)-1H-indazol-6-yl]-benzenesulfonamide], the melting point lay within 187 to 189 °C.
